Results reported in patent publication US20140275105A1, “CRYSTAL OF ANDROGEN RECEPTOR AN[…]” (Astellas Pharma Inc., priority 2011, published 2014).
Read-outs that look alike come from different tables or passages of the source.

Key:
Format in all cases: physicochemical
[1] = Solubility in JP1, JP2, JP2+TC, FaSSIF, FeSSIF (shaking 10 minutes at room temperature, HPLC); settings: 10 minutes shaking
Method: 0.5 mg to 1 mg of a sample was weighed in 10 mL of a centrifuge tube, and respective solutions (see below) were added thereto such that the amount thereof became approximately 150 μg/mL. In order to disperse the sample uniformly, the solution was sonicated in a water bath for a short period of time, followed by shaking at room temperature for 10 minutes using a shaker SA31 (manufactured by Yamato Scientific Co., Ltd.). The solution after being shaken was filtered with a filter, and the concentration of the compound in the filtrate was determined by HPLC. The following solutions were used.
JP1 (first solution of Japanese Pharmacopoeia Disintegration Test): 2.0 g of sodium chloride was dissolved in 7.0 mL of hydrochloric acid and water and the amount thereof was set to 1000 mL (pH: approximately 1.2).
JP2 (second solution of Japanese Pharmacopoeia Disintegration Test): 118 mL of 0.2 mol/L sodium hydroxide test solution and water were added to 250 mL of 0.2 mol/L potassium dihydrogen phosphate test solution and the amount thereof was set to 1000 mL (pH: approximately 6.8).
JP2+bile acid (JP2+TC): sodium taurocholic acid was added to the second solution of Japanese Pharmacopoeia Disintegration Test such that the amount thereof became 15 mmol/L.
FaSSIF (simulated intestinal fluid (fasted state)): 3 mmol/L of sodium taurochloric acid, 0.75 mmol/L of lecithin, 3.9 g of potassium dihydrogen phosphate, and 7.7 g of potassium chloride were added to 1 L of water and the pH thereof was adjusted to approximately 6.5 using sodium hydroxide.
FeSSIF (simulated intestinal fluid (fed state)): 15 mmol/L of sodium taurochloric acid, 3.75 mmol/L of lecithin, 8.65 g of acetic acid, and 15.2 g of potassium chloride were added to 1 L of water and the pH thereof was adjusted to approximately 5.0 using sodium hydroxide.
Device: LC1100 (manufactured by Agilent Technologies)
Mobile phase: A: 0.01 mol/L aqueous ammonium acetate solution, B: 0.01 mol/L ammonium acetate methanol solution
Column: Developsil Combi-RP-5.5 μm (2.1 mm×50 mm)
Column temperature: 40° C.
Detection wavelength: 254 nm

[2] = Hygroscopicity test (VTI SGA-100); settings: 25° C., 5% to 95% relative humidity
Method: Measurement of the hygroscopicity of the crystals of the present invention was performed by using VTI SGA-100 under the conditions of temperature: 25° C., measurement range: 5% to 95% relative humidity, and measurement interval: 5% relative humidity.

[3] = Physical solid stability (powder X-ray diffraction and DSC); settings: 70° C., plugged up, uncontrolled humidity, two weeks
Method: With respect to solid state stability of the crystals of the present invention, physical/chemical stability under temperature and humidity conditions, and chemical stability in a light irradiation state were evaluated. The physical stability was evaluated by the powder X-ray diffraction and the differential scanning calorimetry analysis (DSC) (under the above-described measurement conditions). The chemical stability was evaluated by HPLC (related substance test and optical isomer separating test), and represented by the ratio (%) of generated impurities.
(Solid State Stability, Temperature)
In an Incubator IC-450A (manufactured by AS ONE Corporation) set as 70° C., a sample was plugged up and stored under the uncontrolled humidity environment for two weeks.
(Solid State Stability, Temperature/Humidity)

[4] = FaSSIF (simulated intestinal fluid, pH 6.5), FaSSIF (fasted state), pH approximately 6.5, room temperature, read-out: Solubility FaSSIF
[5] = FeSSIF (simulated intestinal fluid, pH 5), FeSSIF (fed state), pH approximately 5.0, room temperature, read-out: Solubility FeSSIF
[6] = JP2+TC (JP2 + bile acid), JP2 + 15 mmol/L sodium taurocholic acid, room temperature, read-out: Solubility JP2 + TC
[7] = pH 1.2, JP1, pH approximately 1.2, room temperature, read-out: Solubility JP1
[8] = pH 6.8, JP2, pH approximately 6.8, room temperature, read-out: Solubility JP2

| SMILES | solubility at 10 minutes [1, 4] [µg/mL] | solubility at 10 minutes [1, 5] [µg/mL] | solubility at 10 minutes [1, 6] [µg/mL] | solubility at 10 minutes [1, 7] [µg/mL] | solubility at 10 minutes [1, 8] [µg/mL] | Hygroscopicity [2] | Physical solid stability, temperature [3] |
| --- | --- | --- | --- | --- | --- | --- | --- |
| Br.C[C@@H]1CN(c2ccc(C#N)c(Cl)c2)[C@@H](C)CN1C(=O)Nc1cnc(C2CC2)nc1 [(2R,5S)-4-(3-chloro-4-cyanophenyl)-N-(2-cyclopropylpyrimidin-5-yl)-2,5-dimethylpiperazine-1-carboxamide hydrobromide] | 41 | 94.9 | > 80.6 | 12.3 | 19.8 | 0.1% or less | Stable to the temperature |
| C[C@@H]1CN(c2ccc(C#N)c(Cl)c2)[C@@H](C)CN1C(=O)Nc1cnc(C2CC2)nc1.Cl [(2R,5S)-4-(3-chloro-4-cyanophenyl)-N-(2-cyclopropylpyrimidin-5-yl)-2,5-dimethylpiperazine-1-carboxamide hydrochloride] | 39.4 | > 100 | 92.8 | 9.7 | 10.1 | ~1.4% | Stable to the temperature |
| CS(=O)(=O)O.C[C@@H]1CN(c2ccc(C#N)c(Cl)c2)[C@@H](C)CN1C(=O)Nc1cnc(C2CC2)nc1 [(2R,5S)-4-(3-chloro-4-cyanophenyl)-N-(2-cyclopropylpyrimidin-5-yl)-2,5-dimethylpiperazine-1-carboxamide methanesulfonate] | 47.2 | > 100 | > 100 | > 100 | 20.6 | ~5% |  |
| C[C@@H]1CN(c2ccc(C#N)c(Cl)c2)[C@@H](C)CN1C(=O)Nc1cnc(C2CC2)nc1.O [(2R,5S)-4-(3-chloro-4-cyanophenyl)-N-(2-cyclopropylpyrimidin-5-yl)-2,5-dimethylpiperazine-1-carboxamide monohydrate] | 4.4 | 17.7 | 8.8 | 21.8 | 1.6 | 0.1% or less | Stable to the temperature |
